From patent publication US7452884B2, “Methods for inhibiting angiogenesis” (Fox Chase Cancer Center, priority 2001, dated 2008)
Read-outs that look alike come from different tables or passages of the source.

How the values were obtained:
[1] = tested on: SVR angiosarcoma xenografts
[2] = tested on: PAEC-VEGF-Matrigel implants; settings: 250 mg/kg/dose p.o. QD for 6 days, nude mice, p<0.05
[3] = tested on: human umbilical vein endothelial cells (HUVECs); test: Capillary tube formation by HUVECs on Matrigel in vitro; settings: for inhibition of complete capillary tube formation relative to vehicle-treated control cultures: 18 h incubation
[4] = tested on: rat aortic ring explant cultures; settings: for inhibition of microvessel growth: day 8; for inhibition of microvessel growth relative to vehicle-treated control cultures: day 8 (peak of microvessel growth), serum-free EBM

| Compound | maximum reduction in SVR tumor volume relative to vehicle-treated control mice ([1]; 30 mg/kg/dose s.c. Q2D×3, by day 10) | reduction in neovascularization (hemoglobin content) relative to TW:PG vehicle-treated control mice [2] | morbidity or mortality of treated mice ([1]; 250 mg/kg/dose p.o. QD for 10 days) | inhibition of tumor growth ([1]; 250 mg/kg/dose p.o. QD, as early as day 4 of dosing, p<0.005) | maximum inhibition of tumor volume relative to TW:PG vehicle-treated mice ([1]; 250 mg/kg/dose p.o. QD, day 10 of dosing, p<0.001) | inhibition of complete capillary tube formation relative to vehicle-treated control cultures ([3]; 4 μM) | inhibition of complete capillary tube formation relative to vehicle-treated control cultures ([3]; 40 μM, p<0.05) | inhibition of complete capillary tube formation relative to vehicle-treated control cultures ([3]; 100 μM, p<0.05) | cytotoxicity to human endothelial cells in culture ([3]; 4, 40 and 100 μM) | inhibition of microvessel growth ([4]; 0.4 μM) | inhibition of microvessel growth ([4]; 4 μM) | inhibition of microvessel growth relative to vehicle-treated control cultures ([4]; 40 μM, p<0.05) | inhibition of microvessel growth relative to vehicle-treated control cultures ([4]; 100 μM, p<0.01) |
| --- | --- | --- | --- | --- | --- | --- | --- | --- | --- | --- | --- | --- | --- |
| CO[C@@H]1[C@H](OC(=O)NC(=O)CCl)CC[C@]2(CO2)[C@H]1[C@@]1(C)O[C@@H]1CC=C(C)C [TNP470] | 80% | – | – | – | – | – | – | – | – | – | – | – | – |
| Cc1c(-c2cnccn2)ssc1=S [Oltipraz, 5-(2-pyrazinyl)-4-methyl-1,2-dithiol-3-thione] | – | 42% | absence of apparent morbidity or mortality | significant inhibition of tumor growth | 81% | 23% | 62% | 52% | absence of cytotoxicity | not inhibitory | not inhibitory | 50% | 95% |
